Assay results from patent US7402687B2, “Dihydrobenzofuran derivatives and uses thereof” (Wyeth, priority 2005, dated 2008).

Experiments:
[1] = target: T1, human serotonin 5-HT2C receptor (Homo sapiens, UniProt P28335); assay: Saturation binding of [125I]DOI at the human 5-HT2C receptor; details: saturation binding with increasing concentrations of [125I]DOI; read-out: dissociation constant, KD
T1 construct: expressed in transfected cells; host or cells: CHO (Chinese Hamster Ovary) cells; membrane preparation
T1 sequence (P28335 33-458): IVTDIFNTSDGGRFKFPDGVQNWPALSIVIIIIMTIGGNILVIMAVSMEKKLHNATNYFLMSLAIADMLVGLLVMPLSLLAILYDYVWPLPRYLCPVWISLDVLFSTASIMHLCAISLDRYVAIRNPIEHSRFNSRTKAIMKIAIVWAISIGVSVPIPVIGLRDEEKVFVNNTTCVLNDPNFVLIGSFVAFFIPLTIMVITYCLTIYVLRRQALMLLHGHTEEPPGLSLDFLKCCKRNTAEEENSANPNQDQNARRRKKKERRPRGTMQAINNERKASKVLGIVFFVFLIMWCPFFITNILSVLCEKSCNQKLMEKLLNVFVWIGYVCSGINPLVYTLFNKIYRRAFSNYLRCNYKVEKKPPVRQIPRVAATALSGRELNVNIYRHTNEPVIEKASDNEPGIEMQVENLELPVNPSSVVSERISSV
Description: To evaluate the affinity of various compounds of formula I for activity at the 5-HT2C receptor, a CHO (Chinese Hamster Ovary) cell line transfected with the cDNA expressing the human 5-hydroxytryptamine-2C (h5-HT2C) receptor is maintained in DMEM (Dulbecco's Modified Eagle Media) supplied with fetal calf serum, glutamine, and the markers: guaninephosphoribosyl transferase (GTP) and hypoxanthinethymidine (HT). The cells are allowed to grow to confluence in large culture dishes with intermediate changes of media and splitting. Upon reaching confluence, the cells are harvested by scraping. The harvested cells are suspended in half volume of fresh physiological phosphate buffered saline (PBS) solution and centrifuged at low speed (900×g). This operation is repeated once. The collected cells are then homogenized with a polytron at setting #7 for 15 sec in ten volumes of 50 mM Tris.HCl, pH 7.4 and 0.5 mM EDTA. […] The resulting pellet is resuspended in a small volume of Tris.HCl buffer and the tissue protein content is determined in aliquots of 10-25 μL volumes. […]
The dissociation constant, KD of [^125I] […] The bound complex caught on the filter disk is dried in a vacuum oven heated to 60° C. and the radioactivity measured by liquid scintillation with 40 μL Microscint-20 scintillant in a Packard TopCount® equipped with six (6) photomultiplier detectors.

[2] = target: T2, human 5-hydroxytryptamine-2C (h5-HT2C) receptor (Homo sapiens, UniProt P28335); assay: [125I]DOI competition binding at h5-HT2C receptor in transfected CHO cell membranes; details: [125I]DOI displacement, CHO membranes expressing h5-HT2C; 95% confidence interval in adjacent column
T2 construct: expressed in transfected cells; host or cells: CHO (Chinese Hamster Ovary) cells; membrane preparation
T2 sequence (P28335 33-458): T1 sequence (P28335 33-458)

With `COc1cc(CC(C)N)c(OC)cc1I` (centres unmarked) [[^125I] DOI] as the compound, how does the Kd [1] read?
Its Kd is 0.4 nM.

With `CSc1ccc2c(c1)C(N1CCN(C)CC1)Cc1ccccc1S2` (centres unmarked) [Methiothepin] as the compound, how does the Ki [2] read?
The Ki was 4.6 nM.
